Results published in US10221139B2, “Inhibitors of histone demethylases” (Gilead Sciences, Inc., priority 2012, dated 2019).

Assays:
Assay type in all cases: cell-based
Conditions in all cases: 20 hours
JMJD2A (KDM4A) = target: T1, JMJD2A (KDM4A) (Homo sapiens, UniProt O75164); test: Immunofluorescence assay in U2OS cells transfected with pCMVHA JMJD2A (H3K9me3 mark)
T1 construct: Full length; host or cells: U2OS
T1 sequence (O75164 1-1064): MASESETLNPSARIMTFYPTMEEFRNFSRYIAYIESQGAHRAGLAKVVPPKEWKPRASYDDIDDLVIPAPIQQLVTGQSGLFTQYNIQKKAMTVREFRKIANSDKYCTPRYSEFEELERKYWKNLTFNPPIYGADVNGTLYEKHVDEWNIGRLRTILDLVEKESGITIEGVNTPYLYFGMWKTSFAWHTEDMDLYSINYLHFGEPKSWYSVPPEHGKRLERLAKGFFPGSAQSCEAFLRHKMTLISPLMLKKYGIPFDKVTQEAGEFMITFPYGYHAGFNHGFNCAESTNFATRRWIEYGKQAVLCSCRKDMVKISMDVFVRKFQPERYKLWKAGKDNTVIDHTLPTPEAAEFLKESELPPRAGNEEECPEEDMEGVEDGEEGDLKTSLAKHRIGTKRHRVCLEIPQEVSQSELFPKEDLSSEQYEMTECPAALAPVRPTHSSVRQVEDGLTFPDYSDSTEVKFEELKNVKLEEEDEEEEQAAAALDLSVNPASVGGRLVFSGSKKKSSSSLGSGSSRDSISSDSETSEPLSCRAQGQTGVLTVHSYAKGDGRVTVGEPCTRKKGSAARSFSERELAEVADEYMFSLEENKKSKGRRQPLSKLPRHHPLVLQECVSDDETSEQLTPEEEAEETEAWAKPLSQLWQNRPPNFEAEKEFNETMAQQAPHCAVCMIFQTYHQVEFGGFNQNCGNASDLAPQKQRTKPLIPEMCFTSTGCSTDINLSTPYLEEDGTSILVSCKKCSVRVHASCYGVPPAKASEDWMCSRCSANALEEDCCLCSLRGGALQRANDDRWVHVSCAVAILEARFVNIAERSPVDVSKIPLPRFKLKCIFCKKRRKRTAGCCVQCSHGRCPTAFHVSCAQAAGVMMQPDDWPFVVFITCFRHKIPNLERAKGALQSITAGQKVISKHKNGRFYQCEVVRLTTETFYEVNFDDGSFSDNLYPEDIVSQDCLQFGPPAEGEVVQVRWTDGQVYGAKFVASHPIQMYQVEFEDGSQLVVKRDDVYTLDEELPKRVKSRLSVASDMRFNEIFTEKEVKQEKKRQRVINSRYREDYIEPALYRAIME
Experimental: (§1) U2OS cells were seeded 24 hours before transfection. Transfection was performed with Fugene HD transfection reagent as recommended by the manufacturer. 6 hours after transfection, the cells were harvested and seeded into multi well plates into media containing compound. The media used was DMEM containing 5% FBS and pen/strep. 20 hours after incubation of cells with compounds, the cells were washed once in PBS, harvested by fixation with formaldehyde 4% aqueous solution, and washed 2 times in PBS. Subsequently, the cells were permeabilized in PBS with 0.2% Triton X-100 for 10 min at room temperature. Blocking was performed in PBS with 0.2% Triton X-100 and 5% FBS for 45 min at room temperature. The cells were incubated with primary antibodies diluted 1 μg/ml in blocking solution over night at 4° C. The primary antibodies used in the assays were HA.11 (Covance, MMS-101P) and the antibody detecting the mark specified in the Table 6 below. After incubation with primary antibodies, the cells were washed 3 times with PBS, incubated with secondary antibodies diluted 1:1000 (Alexa fluor 594 goat anti rabbit IgG, Invitrogen, A11012; Alexa flour 488 donkey anti mouse IgG, Invitrogen, A21202) and Hoechst, 20 μg/ml (Sigma, 33342) in blocking solution, and washed again 3 times with PBS. Finally, PBS was added and high throughput imaging and analysis were performed by an IN Cell Analyzer 1000 (GE Healthcare). The robot software analyzed individual cells and divided these into HA^+ (transfected cells) and HA^− (non-transfected cells). The IC50 values in Table 7 below were based on an average measure of the staining of the mark specified in the Table 6 below in the transfected cells.

GASC1 (KDM4C) = target: T2, GASC1 (KDM4C) (Homo sapiens, UniProt Q9H3R0); test: Immunofluorescence assay in U2OS cells transfected with pCMVHA JMJD2C (H3K9me3 mark)
T2 construct: Full length; host or cells: U2OS
T2 sequence (Q9H3R0 1-1056): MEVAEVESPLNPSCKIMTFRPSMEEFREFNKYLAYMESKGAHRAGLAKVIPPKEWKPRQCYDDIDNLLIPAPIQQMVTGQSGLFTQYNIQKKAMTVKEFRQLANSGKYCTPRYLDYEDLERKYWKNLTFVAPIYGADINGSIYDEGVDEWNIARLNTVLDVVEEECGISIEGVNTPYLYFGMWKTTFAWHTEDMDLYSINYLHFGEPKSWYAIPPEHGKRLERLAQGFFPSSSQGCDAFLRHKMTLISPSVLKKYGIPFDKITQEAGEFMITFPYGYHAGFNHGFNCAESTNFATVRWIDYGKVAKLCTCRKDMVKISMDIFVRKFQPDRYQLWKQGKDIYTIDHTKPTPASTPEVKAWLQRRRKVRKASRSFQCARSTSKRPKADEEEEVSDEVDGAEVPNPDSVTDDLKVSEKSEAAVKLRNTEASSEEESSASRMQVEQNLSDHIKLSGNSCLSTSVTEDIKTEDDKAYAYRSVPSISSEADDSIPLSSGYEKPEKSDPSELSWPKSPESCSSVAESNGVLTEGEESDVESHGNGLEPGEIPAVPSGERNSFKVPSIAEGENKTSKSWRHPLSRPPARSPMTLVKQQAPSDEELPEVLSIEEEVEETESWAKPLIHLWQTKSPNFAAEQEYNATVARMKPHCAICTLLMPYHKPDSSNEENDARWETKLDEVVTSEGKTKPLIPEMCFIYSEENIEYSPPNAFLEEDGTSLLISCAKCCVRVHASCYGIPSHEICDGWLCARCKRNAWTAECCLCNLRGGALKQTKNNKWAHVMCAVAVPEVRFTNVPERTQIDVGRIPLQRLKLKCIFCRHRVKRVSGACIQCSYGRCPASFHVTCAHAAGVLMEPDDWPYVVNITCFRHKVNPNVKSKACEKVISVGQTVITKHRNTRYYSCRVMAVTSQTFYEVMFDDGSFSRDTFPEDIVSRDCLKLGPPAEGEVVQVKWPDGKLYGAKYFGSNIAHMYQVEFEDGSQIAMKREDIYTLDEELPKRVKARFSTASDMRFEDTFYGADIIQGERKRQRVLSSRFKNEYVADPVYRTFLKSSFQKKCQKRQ
Experimental: as §1

PLU1 (KDM5B) = target: T3, PLU1 (KDM5B) (Homo sapiens, UniProt Q9UGL1); test: Immunofluorescence assay in U2OS cells transfected with pCMVHA PLU1 (H3K4me2 mark)
T3 construct: (1-752); host or cells: U2OS
T3 sequence (Q9UGL1 1-752): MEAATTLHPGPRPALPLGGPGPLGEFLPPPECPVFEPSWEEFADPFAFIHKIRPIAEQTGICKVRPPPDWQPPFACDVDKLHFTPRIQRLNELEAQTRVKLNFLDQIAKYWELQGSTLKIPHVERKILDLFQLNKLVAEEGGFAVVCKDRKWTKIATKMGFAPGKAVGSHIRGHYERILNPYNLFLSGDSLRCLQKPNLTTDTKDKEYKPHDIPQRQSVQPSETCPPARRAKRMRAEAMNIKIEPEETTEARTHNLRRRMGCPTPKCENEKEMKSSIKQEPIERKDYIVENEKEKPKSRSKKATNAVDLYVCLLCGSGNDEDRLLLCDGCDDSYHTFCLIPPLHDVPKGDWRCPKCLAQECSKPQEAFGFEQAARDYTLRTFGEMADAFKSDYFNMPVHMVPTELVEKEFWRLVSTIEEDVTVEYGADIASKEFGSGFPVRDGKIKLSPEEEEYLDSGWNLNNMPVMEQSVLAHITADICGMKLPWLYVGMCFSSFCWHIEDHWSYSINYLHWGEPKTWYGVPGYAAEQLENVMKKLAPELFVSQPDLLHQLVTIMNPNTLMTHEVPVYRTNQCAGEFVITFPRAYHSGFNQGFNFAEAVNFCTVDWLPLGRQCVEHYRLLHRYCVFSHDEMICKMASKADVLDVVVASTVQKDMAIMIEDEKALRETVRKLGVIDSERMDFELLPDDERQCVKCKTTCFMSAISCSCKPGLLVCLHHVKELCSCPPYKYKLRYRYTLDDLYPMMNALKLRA
Summary of the method: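 U2OS cells transiently expressing HA-tagged demethylase, exposed to compound 6 h post-transfection for 20 h in DMEM/5% FBS. Cells fixed, then immunostained for HA and the histone methyl mark and imaged by high-content analysis. IC50 from mean mark staining in HA-positive transfected cells.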

| IC50 (JMJD2A (KDM4A)) [µM] | IC50 (GASC1 (KDM4C)) [µM] | IC50 (PLU1 (KDM5B)) [µM] | Compound |
| --- | --- | --- | --- |
| < 1 | – | – | CCOC(=O)N(C)c1ccc(COC(=O)c2ccnc(CNCCCCN(CC)CC)c2)cc1 [drawing 333, {4-[(ethoxycarbonyl)(methyl)amino]phenyl}methyl 2-({[4-(diethylamino)butyl]amino}methyl)pyridine-4-carboxylate] |
| 1 to 50 | > 50 | 1 to 50 | CCN(CCN(C)C)C(=O)CNCc1cc(C(=O)O)ccn1 [drawing 328, 2-{[({[2-(dimethylamino)ethyl](ethyl)carbamoyl}methyl)amino]methyl}pyridine-4-carboxylic acid] |
| 1 to 50 | – | – | CSCCNCc1cc(C(=O)O)ccn1 [drawing 304, 2-({[2-(methylsulfanyl)ethyl]amino}methyl)pyridine-4-carboxylic acid] |
| 1 to 50 | – | – | CCCCCCCCCCCCCCCC(=O)OCC(COC(=O)CCCCCCCCCCCCCCC)OC(=O)c1ccnc(CNCC(=O)N(CC)CCN(C)C)c1 [drawing 334, 2-(2-{[({[2-(dimethylamino)ethyl](ethyl)carbamoyl}methyl)amino]methyl}pyridine-4-carbonyloxy)-3-(hexadecanoyloxy)propyl hexadecanoate] |
